Experimental data from patent US7618990B2, “Oxazolidone derivatives as PR modulators” (Wyeth, priority 2006, dated 2009).

System: alkaline phosphatase activity in T47D cells
Experiment: Effects of progestins and antiprogestins on alkaline phosphatase activity in T47D cells (antagonist mode)
Type: cell-based
Conditions: Homo sapiens, in the presence of 1 nM progesterone, read-out: T47D Alkaline Phosphatase Activity IC50 (nM) or % inhibition; for IC50: 24 h; for inhibition at 3 µM: % inhibition at 3000 nM
Method: (1) Effects of Progestins and Antiprogestins on Alkaline Phosphatase Activity in T47D Cells
PURPOSE: To identify progestins or antiprogestins by determining a compound's effect on alkaline phosphatase activity in T47D cells.
Culture Medium: • DMEM:F12 (1:1) (GIBCO, BRL) supplemented with 5% (v/v) charcoal stripped fetal bovine serum (not heat-inactivated), 100 U/mL penicillin, 100 μg/mL streptomycin, and 2 mM the GlutaMax™ reagent (GIBCO, BRL).
Alkaline Phosphatase Assay Buffer: • I. 0.1M Tris-HCl, pH 9.8, containing 0.2% the Triton® X-100 reagent • II. 0.1M Tris-HCl, pH 9.8, containing 4 mM p-nitrophenyl phosphate (Sigma). B. Cell Culture and Treatment:
Frozen T47D cells were thawed in a 37° C. water bath and diluted to 280,000 cells/mL in culture medium. To each well in a 96-well plate (Falcon, Becton Dickinson Labware), 180 μL of diluted cell suspension was added.
Twenty μL of reference or test compounds diluted in the culture medium was then added to each well. When testing for progestin antagonist activity, reference antiprogestins or test compounds were added in the presence of 1 nM progesterone. The cells were incubated at 37° C. in a 5% CO2/humidified atmosphere for 24 h.
NOTE: For high throughput screening, one concentration of each compound was tested at 0.3 μg/mL. Based on an average molecular weight of 300 g/mol for the compounds in the library, the concentration was approximately 1 μM. Subsequently, active compounds were tested in dose response assays to determine EC50 and IC50. C. Alkaline Phosphatase Enzyme Assay:
At the end of treatment, the medium was removed from the plate. Fifty μL of assay buffer I was added to each well. The plates were shaken in a titer plate shaker for 15 min. Then 150 μL of assay buffer II was added to each well. Optical density measurements were taken at 5 min intervals for 30 min at a test wavelength of 405 nm.
For reference and test compounds, a dose response curve was generated for dose (X-axis) vs. the rate of enzyme reaction (slope) (Y-axis). Square root-transformed data was used for analysis of variance and nonlinear dose response curve fitting for both agonist and antagonist modes. Huber weighting was used to down-weight the effects of outliers. EC50 or IC50 values were calculated from the retransformed values. JMP software (SAS Institute, Inc.) was used for both one-way analysis of variance and non-linear dose response analysis in both single dose and dose response studies.
Progesterone and trimegestone were reference progestins and RU486 was the reference antiprogestin. All reference compounds were run in full dose response curves and the EC50 and IC50 values were calculated.

IC50 [nM]	Structure (SMILES)	inhibition at 3 µM [%]
285	CC1(C)COC(=O)N1c1nc(-c2ccc(OC(F)(F)F)cc2)cs1 [Example 97, 4,4-Dimethyl-3-{4-[4-(trifluoromethoxy)phenyl]-1,3-thiazol-2-yl}-1,3-oxazolidin-2-one]	–
48	CC1(C)COC(=O)N1c1nc(-c2ccc(Cl)c(Cl)c2)cs1 [Example 119, 3-[4-(3,4-Dichlorophenyl)-1,3-thiazol-2-yl]-4,4-dimethyl-1,3-oxazolidin-2-one]	–
–	CC1(C)COC(=O)N1c1nc(-c2ccoc2)cs1 [Example 104, 3-[4-(3-Furyl)-1,3-thiazol-2-yl]-4,4-dimethyl-1,3-oxazolidin-2-one]	94
17.1	N#Cc1ccc(-c2csc(N3C(=O)OCC34CCC4)n2)cc1 [Example 27, 4-[2-(6-Oxo-7-oxa-5-azaspiro[3.4]oct-5-yl)-1,3-thiazol-4-yl]benzonitrile]	–
43.5	CC1(C)COC(=O)N1c1nc(-c2ccc(C#N)cc2)c(Cl)s1 [Example 90, 4-[5-Chloro-2-(4,4-dimethyl-2-oxo-1,3-oxazolidin-3-yl)-1,3-thiazol-4-yl]benzonitrile]	–
–	CC1(C)COC(=O)N1c1nc(-c2ccc(C#N)cc2)co1 [Example 92, 4-[2-(4,4-dimethyl-2-oxo-1,3-oxazolidin-3-yl)-1,3-oxazol-4-yl]benzonitrile]	76
64.4	CC1(C)CO/C(=N\C#N)N1c1nc(-c2ccc(C#N)cc2)cs1 [Example 135, {(2Z)-3-[4-(4-cyanophenyl)-1,3-thiazol-2-yl]-4,4-dimethyl-1,3-oxazolidin-2-ylidene}cyanamide]	–
–	CC1(C)COC(=O)N1c1nc(-c2ccc(Oc3ccccc3)cc2)cs1 [Example 127, 4,4-Dimethyl-3-[4-(4-phenoxyphenyl)-1,3-thiazol-2-yl]-1,3-oxazolidin-2-one]	87
20.3	COC(=O)c1ccc(-c2csc(N3C(=O)OCC3(C)C)n2)cc1 [Example 129, Methyl 4-[2-(4,4-dimethyl-2-oxo-1,3-oxazolidin-3-yl)-1,3-thiazol-4-yl]benzoate]	–
–	CC1(C)COC(=O)N1c1nc(-c2ccc(-c3ccccc3)cc2)cs1 [Example 128, 3-(4-Biphenyl-4-yl-1,3-thiazol-2-yl)-4,4-dimethyl-1,3-oxazolidin-2-one]	47
191	COc1ccc(-c2csc(N3C(=O)OCC3(C)C)n2)cc1 [Example 98, 3-[4-(4-Methoxyphenyl)-1,3-thiazol-2-yl]-4,4-dimethyl-1,3-oxazolidin-2-one]	–
110	CC1(C)COC(=O)N1c1nc(-c2ccc3[nH]ccc3c2)cs1 [Example 105, 3-[4-(1H-Indol-5-yl)-1,3-thiazol-2-yl]-4,4-dimethyl-1,3-oxazolidin-2-one]	–
557	CC1(C)COC(=O)N1c1nc(-c2ccc3ccccc3c2)cs1 [Example 122, 4,4-Dimethyl-3-[4-(2-naphthyl)-1,3-thiazol-2-yl]-1,3-oxazolidin-2-one]	–
733	CN1CCN(c2nc(-c3ccc(Br)cc3)cs2)C1=O [Example 76, 1-[4-(4-Bromophenyl)-1,3-thiazol-2-yl]-3-methylimidazolidin-2-one]	–
110	Cc1ccc(-c2csc(N3C(=O)OCC3(C)C)n2)cc1 [Example 121, 4,4-Dimethyl-3-[4-(4-methylphenyl)-1,3-thiazol-2-yl]-1,3-oxazolidin-2-one]	–
10.8	CC(=O)/N=C1\OCC(C)(C)N1c1nc(-c2ccc(C#N)cc2)cs1 [Example 137, N-{(2Z)-3-[4-(4-Cyanophenyl)-1,3-thiazol-2-yl]-4,4-dimethyl-1,3-oxazolidin-2-ylidene}acetamide]	–
59.7	CC1(C)COC(=O)N1c1nc(-c2cccc([N+](=O)[O-])c2)cs1 [Example 124, 4,4-Dimethyl-3-[4-(3-nitrophenyl)-1,3-thiazol-2-yl]-1,3-oxazolidin-2-one]	–
6.4	CC1(C)COC(=S)N1c1nc(-c2ccc(C#N)cc2)cs1 [Example 82, 4-[2-(4,4-Dimethyl-2-thioxo-1,3-oxazolidin-3-yl)-1,3-thiazol-4-yl]benzonitrile]	–
